This is an account of results in patent US9969742B2, “Imidazotriazinone compounds” (Ironwood Pharmaceuticals, Inc., priority 2012, dated 2018).

Read-outs that look alike come from different tables or passages of the source.

Common to all, as to assay type: biochemical
The target in one experiment is T1, PDE9A2 (Homo sapiens, UniProt O76083).
T1 construct: purchased Reaction Biology Corporation, Malvern, Pa
Put plainly: Phosphodiesterase enzyme screening assay, PDE9A2. In outline:
(§1)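 Read-out was electrophoretic mobility-shift separation on chip of fluorescent cyclic nucleotide from 5′-AMP/5′-GMP, with inhibition or enhancement judged against control wells (quadruplicate means). Reactions lasted 1 h at RT in HEPES pH 7.5 buffer with MgCl2, DTT and Brij plus 4.0 μM cGMP substrate, then were halted with EDTA stop buffer.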

For a further experiment, the target named is T2, PDE1A (Homo sapiens, UniProt P54750).
T2 construct: purchased Reaction Biology Corporation, Malvern, Pa
Put plainly: Phosphodiesterase enzyme screening assay, PDE1A. To be noted: value greater than 1 indicates greater selectivity for PDE9A2. In outline:
as §1

The next experiment concerns the target T3, PDE1B (Homo sapiens, UniProt Q01064).
T3 construct: purchased Reaction Biology Corporation, Malvern, Pa
Description: Phosphodiesterase enzyme screening assay, PDE1B. Particulars: value greater than 1 indicates greater selectivity for PDE9A2. Summed up:
as §1

[1] abbreviates: IC50 band, 4.0 μM cGMP substrate, 1 hour at R.T.
The mark [2] stands for this setting: ratio of IC50 values PDE1A vs PDE9A2.
The mark [3] stands for this setting: ratio of IC50 values PDE1B vs PDE9A2.
Where [4] appears, read: ratio of IC50 values, PDE1A versus PDE9A2.
Setting [5] is: ratio of IC50 values, PDE1B versus PDE9A2.

T2 sequence (P54750 whole entry): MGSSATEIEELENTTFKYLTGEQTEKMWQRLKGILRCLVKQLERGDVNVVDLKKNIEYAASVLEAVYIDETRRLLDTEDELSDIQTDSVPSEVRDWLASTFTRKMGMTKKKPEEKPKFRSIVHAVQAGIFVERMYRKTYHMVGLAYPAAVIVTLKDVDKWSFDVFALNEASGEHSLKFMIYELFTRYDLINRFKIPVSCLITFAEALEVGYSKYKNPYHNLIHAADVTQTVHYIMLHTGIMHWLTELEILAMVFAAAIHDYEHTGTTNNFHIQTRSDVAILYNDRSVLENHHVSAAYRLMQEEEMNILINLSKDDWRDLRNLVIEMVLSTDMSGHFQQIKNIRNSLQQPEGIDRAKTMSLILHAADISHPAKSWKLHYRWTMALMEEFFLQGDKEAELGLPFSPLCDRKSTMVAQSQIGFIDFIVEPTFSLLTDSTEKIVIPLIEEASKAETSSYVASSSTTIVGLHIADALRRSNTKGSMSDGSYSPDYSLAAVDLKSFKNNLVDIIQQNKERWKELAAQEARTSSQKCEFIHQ
T3 sequence (Q01064 whole entry): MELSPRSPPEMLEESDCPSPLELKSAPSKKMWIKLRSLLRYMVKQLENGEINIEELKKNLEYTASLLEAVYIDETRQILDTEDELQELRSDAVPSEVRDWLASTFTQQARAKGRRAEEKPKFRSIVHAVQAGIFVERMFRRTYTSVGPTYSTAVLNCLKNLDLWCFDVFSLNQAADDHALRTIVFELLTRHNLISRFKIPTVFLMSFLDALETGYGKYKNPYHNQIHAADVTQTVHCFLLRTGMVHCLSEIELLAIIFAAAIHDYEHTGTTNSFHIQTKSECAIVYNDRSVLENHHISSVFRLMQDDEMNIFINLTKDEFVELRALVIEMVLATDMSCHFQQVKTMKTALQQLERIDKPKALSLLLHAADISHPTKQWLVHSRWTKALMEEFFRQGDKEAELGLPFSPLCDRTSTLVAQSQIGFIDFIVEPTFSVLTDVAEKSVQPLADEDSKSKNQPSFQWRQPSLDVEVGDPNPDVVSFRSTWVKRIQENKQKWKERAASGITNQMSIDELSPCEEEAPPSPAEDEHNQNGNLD
T1 sequence (O76083 1-533 isoform O76083-2): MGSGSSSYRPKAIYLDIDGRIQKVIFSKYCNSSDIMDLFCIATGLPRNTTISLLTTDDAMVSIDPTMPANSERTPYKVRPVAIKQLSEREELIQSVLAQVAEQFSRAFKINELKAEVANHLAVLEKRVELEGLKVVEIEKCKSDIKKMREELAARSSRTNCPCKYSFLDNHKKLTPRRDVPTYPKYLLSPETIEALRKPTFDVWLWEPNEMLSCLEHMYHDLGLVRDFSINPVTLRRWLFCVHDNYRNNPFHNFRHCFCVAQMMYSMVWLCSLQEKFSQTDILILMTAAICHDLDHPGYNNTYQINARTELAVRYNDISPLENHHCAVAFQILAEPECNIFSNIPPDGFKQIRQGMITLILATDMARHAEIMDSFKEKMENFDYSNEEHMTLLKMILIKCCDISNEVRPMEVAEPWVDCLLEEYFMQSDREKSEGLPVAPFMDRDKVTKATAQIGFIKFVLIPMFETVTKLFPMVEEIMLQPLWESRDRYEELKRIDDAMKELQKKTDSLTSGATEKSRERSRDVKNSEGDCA

As to `Cc1cc(F)ccc1-c1ncc2c(=O)[nH]c(C3CN(Cc4nc5ccccn5n4)CC3C)nn12` (single isomer, unassigned; (+)) [(+)-2-((3,4-trans)-1-([1,2,4]triazolo[1,5-a]pyridin-2-ylmethyl)-4-methylpyrrolidin-3-yl)-7-(4-fluoro-2-methylphenyl)imidazo[5,1-f][1,2,4]triazin-4(3H)-one], the IC50 against PDE9A2 (setting [1]) is under 1000 nM. Besides, the “PDE1A selectivity (versus PDE9A2)” value on PDE1A (setting [2]) turned out to be 215. Moreover, the “PDE1B selectivity (versus PDE9A2)” value at PDE1B (setting [3]) was 473.

With `CC1CN(Cc2nc3ccccn3n2)CC1c1nn2c(-c3ccc(F)cc3)ncc2c(=O)[nH]1` (single isomer, unassigned; (+)) [(+)-2-((3,4-trans)-1-([1,2,4]triazolo[1,5-a]pyridin-2-ylmethyl)-4-methylpyrrolidin-3-yl)-7-(4-fluorophenyl)imidazo[5,1-f][1,2,4]triazin-4(3H)-one], the IC50 at PDE9A2 (read-out: Band (PDE9A2 IC50)) was under 1000 nM. Also, the “PDE1A selectivity (versus PDE9A2)” value on PDE1A (setting [4]) was 87. Moreover, at PDE1B (setting [5]), the “PDE1B selectivity (versus PDE9A2)” value came to 87.

Take `Cc1ccncc1-c1ncc2c(=O)[nH]c(C3CN(Cc4nc5ccccn5n4)CC3C)nn12` (single isomer, unassigned; (+)) [(+)-2-((3,4-trans)-1-([1,2,4]triazolo[1,5-a]pyridin-2-ylmethyl)-4-methylpyrrolidin-3-yl)-7-(4-methylpyridin-3-yl)imidazo[5,1-f][1,2,4]triazin-4(3H)-one]: on PDE9A2 (read-out: Band (PDE9A2 IC50)), the concentration for half-maximal inhibition (IC50) is under 1000 nM. Moreover, the “PDE1A selectivity (versus PDE9A2)” value at PDE1A (setting [4]) amounted to 56. Moreover, the “PDE1B selectivity (versus PDE9A2)” value at PDE1B (setting [5]) came to 115.

Compound `Cc1ccc(F)cc1-c1ncc2c(=O)[nH]c(C3CN(Cc4nc5ccccn5n4)CC3C)nn12` (single isomer, unassigned; (+)) [(+)-2-((3,4-trans)-1-([1,2,4]triazolo[1,5-a]pyridin-2-ylmethyl)-4-methylpyrrolidin-3-yl)-7-(5-fluoro-2-methylphenyl)imidazo[5,1-f][1,2,4]triazin-4(3H)-one] came in with a concentration for half-maximal inhibition (IC50) at PDE9A2 (setting [1]) of under 1000 nM. Moreover, the “PDE1A selectivity (versus PDE9A2)” value on PDE1A (setting [2]) is given as 487. Besides, the “PDE1B selectivity (versus PDE9A2)” value on PDE1B (setting [3]) was 473.

Take `Cc1ccccc1-c1ncc2c(=O)[nH]c(C3CN(Cc4nc5ccccn5n4)CC3C)nn12` (single isomer, unassigned; (+)) [(+)-2-((3,4-trans)-1-([1,2,4]triazolo[1,5-a]pyridin-2-ylmethyl)-4-methylpyrrolidin-3-yl)-7-(o-tolyl)imidazo[5,1-f][1,2,4]triazin-4(3H)-one]: the half-maximal inhibitory concentration (IC50) on PDE9A2 (read-out: Band (PDE9A2 IC50)) is under 1000 nM. Moreover, the “PDE1A selectivity (versus PDE9A2)” value at PDE1A (setting [4]) was 490. In addition, the “PDE1B selectivity (versus PDE9A2)” value on PDE1B (setting [5]) came out at 429.

On to `CCC(CC)c1ncc2c(=O)[nH]c(C3CN(Cc4nc5ccccn5n4)CC3C)nn12` (single isomer, unassigned; (+)) [(+)-2-((3,4-trans)-1-([1,2,4]triazolo[1,5-a]pyridin-2-ylmethyl)-4-methylpyrrolidin-3-yl)-7-(pentan-3-yl)imidazo[5,1-f][1,2,4]triazin-4(3H)-one], for which the IC50 at PDE9A2 (4.0 μM cGMP substrate, 1 hour at R.T., read-out: Band (PDE9A2 IC50)) was under 1000 nM. The “PDE1A selectivity (versus PDE9A2)” value on PDE1A (ratio of IC50 values PDE1A / PDE9A2) is reported as 386. The “PDE1B selectivity (versus PDE9A2)” value at PDE1B (ratio of IC50 values PDE1B / PDE9A2) was determined as 306.

For `CC1CN(Cc2nc3ccccn3n2)CC1c1nn2c(C3CCOCC3)ncc2c(=O)[nH]1` (single isomer, unassigned; (+)) [(+)-2-((3,4-trans)-1-([1,2,4]triazolo[1,5-a]pyridin-2-ylmethyl)-4-methylpyrrolidin-3-yl)-7-(tetrahydro-2H-pyran-4-yl)imidazo[5,1-f][1,2,4]triazin-4(3H)-one], the IC50 on PDE9A2 (Table 1, 10 concentrations, 4.0 μM cGMP substrate, 1 hour at R.T., read-out: Band (PDE9A2 IC50)) was under 1000 nM. Also, the “PDE1A selectivity (versus PDE9A2)” value on PDE1A (Table 1, ratio of IC50 values) amounted to 563. The “PDE1B selectivity (versus PDE9A2)” value at PDE1B (Table 1, ratio of IC50 values) is recorded as 457.

On to `CC1CN(Cc2nc3ccccn3n2)CC1c1nn2c(C3CCCC3)ncc2c(=O)[nH]1` (single isomer, unassigned; (+)) [(+)-2-((3,4-trans)-1-([1,2,4]triazolo[1,5-a]pyridin-2-ylmethyl)-4-methylpyrrolidin-3-yl)-7-cyclopentylimidazo[5,1-f][1,2,4]triazin-4(3H)-one], for which the IC50 at PDE9A2 (read-out: Band (PDE9A2 IC50)) is under 1000 nM. For the same compound, the “PDE1A selectivity (versus PDE9A2)” value on PDE1A (setting [4]) is listed as 98. Also, the “PDE1B selectivity (versus PDE9A2)” value on PDE1B (setting [5]) is recorded as 204.
